Test results taken from patent US8071580B2, “Medium-chain length fatty alcohols as stimulators of hematopoiesis” (Prometic Biosciences Inc., priority 2004, dated 2011).

Experiments:
[1] = tested on: Female C57BL/6 mice immunosuppressed with cyclophosphamide; assay: Chemoprotection studies: in vivo induction of immune cell proliferation or protection in cyclophosphamide-immunosuppressed mice; conditions: oral pre-treatment day -3, -2, -1, CY 200 mg/kg i.v. day 0, sacrifice day +5; for peripheral white blood cell count: FIG. 2; for spleen red cell count: FIG. 3
Method: Chemoprotection Studies: In vivo Induction of Immune Cell Proliferation or Protection By Medium-Chain Fatty Alcohol.
Female C57BL/6 mice, 6 to 8 weeks old, were immunosuppressed by treatment with 200 mg/kg of cyclophosphamide (CY) administered intravenously at day 0. To examine the immunoprotective effect of the medium-chain fatty alcohol, mice were pre-treated at day −3, −2 and −1 by oral administration of the compound. Mice were sacrificed at day +5 by cardiac puncture and cervical dislocation. After the sacrifice, tissues were crushed in PBS buffer and cells were counted on a hemacytometer.

rats = conditions: oral; cited from earlier work

SMILES	peripheral white blood cell count [1]	spleen red cell count [1]	bone marrow white cell count ([1]; FIG. 1)	LD50 (rats) [g/kg body weight]
CCCCCCCCCCCCO [dodecanol]	nonsignificant increase	significant increase	–	–
CCCCCCCCCCO [decanol]	nonsignificant increase	significant increase	significant increase	4.7
CCCCCCCCO [octanol]	nonsignificant increase	significant increase	–	3.2
